According to PubChem BioAssay AID1259408 (Genetic Toxicology Data Bank (GENE-TOX), 2018):
Active and inactive are the calls of the source. The rule behind the calls is not given here.

System: GENE-TOX genotoxicity assays, various organisms and cells
Experiment: GENE-TOX mutagenicity studies
Conditions: for call: Assay Type: In vivo carcinogenicity studies
[1] = Species/Cell Type: Neurospora crassa, Assay Type: Forward gene mutation, Assay Code: NEF+, Evaluation Type: Evaluation A (Pre-1980)
[2] = Species/Cell Type: Chinese hamster lung (V79) cells, Assay Type: Forward gene mutation at the HPRT or ouabain locus, Assay Code: V79+, Evaluation Type: Evaluation A (Pre-1980)
[3] = Species/Cell Type: Drosophila melanogaster, Assay Type: Sex-linked recessive lethal gene mutation, Assay Code: SRL+, Evaluation Type: Evaluation A (Pre-1980)
[4] = Species/Cell Type: Fischer rat embryo (RLV/1706) cells, Assay Type: Cell transformation, viral enhanced, Assay Code: CTR+, Evaluation Type: Evaluation A (Pre-1980)
[5] = Species/Cell Type: Mouse, Sex: Male, Assay Type: Sperm morphology, Assay Code: SPI-, Evaluation Type: Evaluation A (Pre-1980)
[6] = Species/Cell Type: Nonhuman, Assay Type: Sister-chromatid exchange (SCE) in vitro, Assay Code: SC2+D, Dose Response: With dose response, Evaluation Type: Evaluation A (Pre-1980)
[7] = Species/Cell Type: Nonhuman, Assay Type: Sister-chromatid exchange (SCE) in vitro, Assay Code: SC2+, Evaluation Type: Evaluation B (Post-1980)
[8] = Species/Cell Type: Nonhuman, Assay Code: CCG+L, Evaluation Type: Evaluation A (Pre-1980)
[9] = Species/Cell Type: Human lymphocytes, Assay Type: Sister-chromatid exchange (SCE) in vitro, Assay Code: SCLT, Evaluation Type: Evaluation B (Post-1980)
[10] = Species/Cell Type: Human, Assay Type: Sister-chromatid exchange (SCE) in vitro, Assay Code: SC1T, Evaluation Type: Evaluation B (Post-1980)

In the case of COC1=C(N)C(=O)c2nc(-c3nc(C(=O)O)c(C)c(-c4ccc(OC)c(OC)c4O)c3N)ccc2C1=O, the mutagenic call (Species/Cell Type: Fischer rat embryo (RLV/1706) cells, Assay Type: Cell transformation, viral enhanced, Assay Code: CTR-, Evaluation Type: Evaluation A (Pre-1980)) is reported as “inactive; negative”, the mutagenic call (Species/Cell Type: Human cell culture, Assay Type: Chromosome aberrations in vitro, Assay Code: CYZ+, Evaluation Type: Evaluation A (Pre-1980)) is reported as “active; positive” and the mutagenic call (Species/Cell Type: Human diploid fibroblasts, Assay Type: Unscheduled DNA synthesis (UDS) in vitro, DNA effects, Assay Code: UDH+, Evaluation Type: Evaluation A (Pre-1980)) is reported as “active; positive”. The mutagenic call (Species/Cell Type: Mammalian oocytes or early embryo, Assay Type: Chromosome aberrations in vivo, Assay Code: CYO+, Evaluation Type: Evaluation A (Pre-1980)) was “active; positive”, the mutagenic call (Species/Cell Type: Nonhuman, Assay Type: Sister-chromatid exchange (SCE) in vivo, Assay Code: SC3+, Evaluation Type: Evaluation A (Pre-1980)) was “active; positive” and the mutagenic call (Species/Cell Type: Vicia faba, Assay Type: Chromosome aberrations, Assay Code: VIC+, Evaluation Type: Evaluation A (Pre-1980)) was “active; positive”.
ClCC1(Cl)OC1Cl (stereo not drawn) was tested, and the mutagenic call [1] was “active; positive” and the mutagenic call (Species/Cell Type: Neurospora crassa, Assay Type: Reverse gene mutation, Assay Code: NER+, Evaluation Type: Evaluation A (Pre-1980)) was “active; positive”.
CC(=O)OC/N=[N+](/C)[O-] was tested, and the mutagenic call [2] was “active; positive”, the mutagenic call [3] was “active; positive” and the mutagenic call (Species/Cell Type: Escherichia coli polA (W3119 vs P3478), Assay Type: Rec-assay, DNA effects (bacterial DNA repair), Assay Code: RE1+, Evaluation Type: Evaluation A (Pre-1980)) was “active; positive”. The mutagenic call [4] was “active; positive”, the mutagenic call (Species/Cell Type: Mouse (BALB/c-3T3) cells, Assay Type: Cell transformation, Assay Code: CTB+, Evaluation Type: Evaluation A (Pre-1980)) was “active; positive” and the mutagenic call [5] was “inactive; negative”. For the same molecule, the call (Species/Cell Type: Nonhuman, Assay Code: CCG+, Evaluation Type: Evaluation A (Pre-1980)) was “active; positive”, the mutagenic call [6] was “active; positive” and the mutagenic call (Species/Cell Type: Nonhuman, Assay Type: Sister-chromatid exchange (SCE) in vivo, Assay Code: SC3+, Evaluation Type: Evaluation B (Post-1980)) was “active; positive”. The mutagenic call (Species/Cell Type: Saccharomyces cerevisiae, Assay Type: Mitotic recombination or gene conversion, Assay Code: YEH+, Evaluation Type: Evaluation A (Pre-1980)) was “active; positive”, the mutagenic call (Species/Cell Type: Salmonella typhimurium, Assay Type: Forward and reverse gene mutation, host-mediated assay, Assay Code: HMA+, Evaluation Type: Evaluation A (Pre-1980)) was “active; positive” and the mutagenic call (Species/Cell Type: Syrian hamster embryo (SA7/SHE) cells, Assay Type: Cell transformation, viral enhanced, Assay Code: CT7+, Evaluation Type: Evaluation A (Pre-1980)) was “active; positive”. For the same molecule, the mutagenic call (Species/Cell Type: Syrian hamster embryo (SHE) cells, Assay Type: Cell transformation, clonal assay, Assay Code: CTC+, Evaluation Type: Evaluation A (Pre-1980)) was “active; positive”.
CCCCOc1ccc(CC(=O)NOC=O)cc1 was tested, and the mutagenic call (Species/Cell Type: Nonhuman, Assay Type: Sister-chromatid exchange (SCE) in vitro, Assay Code: SC2+D, Dose Response: With dose response, Evaluation Type: Evaluation B (Post-1980)) was “active; positive”.
For O.O.O.O.O.O.[Cl-].[Cl-].[Ni+2], the mutagenic call [7] was “active; positive”.
In the case of O=S(=O)(O)c1ccc(N=Nc2c(O)ccc3ccccc23)c2ccccc12, the mutagenic call (Species/Cell Type: Bacillus subtilis (H17 vs M45), Assay Type: Rec-assay, spot test, DNA effects (bacterial DNA repair), Assay Code: REWT, Evaluation Type: Evaluation A (Pre-1980)) is reported as “no conclusion”.
Cc1ccc(Cl)cc1N was tested, and the mutagenic call [5] was “inactive; negative” and the call [8] was “active; positive”.
For Clc1nc(Cl)nc(Nc2ccccc2Cl)n1, the mutagenic call [4] was “active; positive” and the call (Species/Cell Type: Nonhuman, Assay Code: CCG-, Evaluation Type: Evaluation A (Pre-1980)) was “inactive; negative”.
For CCCCC[C@H](O)/C=C/[C@@H]1[C@@H](C/C=C\CCCC(=O)O)[C@@H](O)C[C@H]1O, the mutagenic call (Species/Cell Type: Rabbit, Sex: Male, Assay Type: Sperm morphology, Assay Code: SPR+, Evaluation Type: Evaluation A (Pre-1980)) was “active; positive”.
C/C=C/C=C/C(=O)O was tested, and the mutagenic call (Species/Cell Type: Nonhuman, Assay Type: Sister-chromatid exchange (SCE) in vitro, Assay Code: SC2T, Evaluation Type: Evaluation A (Pre-1980)) was “no conclusion”.
With Cc1c2c(c(C)c3c1ccc1ccccc13)[C@@H]1OC1[C@@H](O)[C@@H]2O (stereo partly drawn) the mutagenic call [2] was “active; positive”.
Cn1cnc([N+](=O)[O-])c1Sc1ncnc2nc[nH]c12 was tested, and the mutagenic call (Species/Cell Type: Drosophila melanogaster, Assay Type: Aneuploidy, partial sex chromosome loss, chromosome aberrations, Assay Code: DAP+M, Evaluation Type: Evaluation A (Pre-1980)) was “active; positive”, the mutagenic call (Species/Cell Type: Drosophila melanogaster, Assay Type: Aneuploidy, sex chromosome gain, chromosome aberrations, Assay Code: DAG+M, Evaluation Type: Evaluation A (Pre-1980)) was “active; positive” and the mutagenic call (Species/Cell Type: Drosophila melanogaster, Assay Type: Aneuploidy, whole sex chromosome loss, chromosome aberrations, Assay Code: DACT, Evaluation Type: Evaluation A (Pre-1980)) was “no conclusion”. For the same molecule, the mutagenic call [9] was “no conclusion”, the mutagenic call (Species/Cell Type: Human lymphocytes, Assay Type: Sister-chromatid exchange (SCE) in vivo, Assay Code: SCY+, Evaluation Type: Evaluation B (Post-1980)) was “active; positive” and the mutagenic call [10] was “no conclusion”. For the same molecule, the mutagenic call (Species/Cell Type: Mammalian polychromatic erythrocytes, Assay Type: Micronucleus test, chromosome aberrations, Assay Code: MNT+, Evaluation Type: Evaluation A (Pre-1980)) was “active; positive”, the mutagenic call (Species/Cell Type: Mouse, Sex: Male, Assay Type: Sperm morphology, Assay Code: SPI+, Evaluation Type: Evaluation A (Pre-1980)) was “active; positive” and the mutagenic call (Species/Cell Type: Neurospora crassa, Assay Type: Forward and reverse gene mutation, lethal mutation, host-mediated assay, Assay Code: HMD+, Evaluation Type: Evaluation A (Pre-1980)) was “active; positive”. The mutagenic call [1] was “active; positive”, the call [8] was “active; positive” and the mutagenic call (Species/Cell Type: Nonhuman, Assay Type: Sister-chromatid exchange (SCE) in vivo, Assay Code: SC3-, Evaluation Type: Evaluation B (Post-1980)) was “inactive; negative”. For the same molecule, the mutagenic call (Species/Cell Type: Rodents, Sex: Male, Assay Type: Dominant lethal test, Assay Code: DLTT, Evaluation Type: Evaluation A (Pre-1980)) was “no conclusion” and the mutagenic call (Species/Cell Type: Salmonella typhimurium (one or more of the five standard strains: TA98, TA100, TA1535, TA1537, and TA1538), Assay Type: Histidine reverse gene mutation, Ames assay, Assay Code: SAL+, Evaluation Type: Evaluation A (Pre-1980)) was “active; positive”.
NC(=O)N1c2ccccc2C2OC2c2ccccc21 (stereo not drawn) was tested, and the mutagenic call [9] was “no conclusion” and the mutagenic call (Species/Cell Type: Salmonella typhimurium (one or more of the five standard strains: TA98, TA100, TA1535, TA1537, and TA1538), Assay Type: Histidine reverse gene mutation, Ames assay, Assay Code: SALT, Evaluation Type: Evaluation A (Pre-1980)) was “no conclusion”.
O=C(O)CCC(=O)OC[C@@H](NC(=O)C(Cl)Cl)[C@H](O)c1ccc([N+](=O)[O-])cc1 was tested, and the mutagenic call (Species/Cell Type: Mammalian polychromatic erythrocytes, Assay Type: Micronucleus test, chromosome aberrations, Assay Code: MNTT, Evaluation Type: Evaluation A (Pre-1980)) was “no conclusion” and the mutagenic call [5] was “inactive; negative”.
In the case of Cc1cc(O)cc(O)c1, the mutagenic call (Species/Cell Type: Allium cepa, Assay Type: Chromosome aberrations, Assay Code: ALC-, Evaluation Type: Evaluation A (Pre-1980)) is reported as “inactive; negative”.
CO[C@@H]1[C@@H](OC(N)=O)[C@@H](O)[C@H](Oc2ccc3c(O)c(NC(=O)c4ccc(O)c(CC=C(C)C)c4)c(=O)oc3c2C)OC1(C)C was tested, and the mutagenic call [7] was “active; positive”.
For C/C=C1/C[C@@H](C)[C@](O)(CO)C(=O)OCC2=CCN3CC[C@@H](OC1=O)[C@@H]23, the mutagenic call [3] was “active; positive” and the mutagenic call (Species/Cell Type: Salmonella typhimurium (one or more of the five standard strains: TA98, TA100, TA1535, TA1537, and TA1538), Assay Type: Histidine reverse gene mutation, Ames assay, Assay Code: SAL+*, Activation: With metabolic activation, Evaluation Type: Evaluation A (Pre-1980)) was “active; positive”.
In the case of c1ccc(-c2ccccc2)cc1, the mutagenic call (Species/Cell Type: Human diploid fibroblasts, Assay Type: Unscheduled DNA synthesis (UDS) in vitro, DNA effects, Assay Code: UDH-, Evaluation Type: Evaluation A (Pre-1980)) is reported as “inactive; negative”, the mutagenic call [6] is reported as “active; positive” and the mutagenic call (Species/Cell Type: Rat primary hepatocytes, Assay Type: Unscheduled DNA synthesis (UDS) in vitro, DNA effects, Assay Code: UDP-, Evaluation Type: Evaluation A (Pre-1980)) is reported as “inactive; negative”. For the same molecule, the mutagenic call (Species/Cell Type: Saccharomyces cerevisiae, Assay Type: Mitotic recombination or gene conversion, Assay Code: YEH-, Evaluation Type: Evaluation A (Pre-1980)) was “inactive; negative”.
With CC(C)C[C@H]1C(=O)N2CCC[C@H]2[C@]2(O)O[C@](NC(=O)[C@@H]3C=C4c5cccc6[nH]c(Br)c(c56)C[C@H]4N(C)C3)(C(C)C)C(=O)N12 the mutagenic call [9] was “no conclusion”, the mutagenic call [10] was “no conclusion” and the mutagenic call (Species/Cell Type: Human, Sex: Male, Assay Type: Sperm morphology, Assay Code: SPH-, Evaluation Type: Evaluation A (Pre-1980)) was “inactive; negative”.
In the case of Nc1nc(N)nc(N)n1, the mutagenic call (Species/Cell Type: Drosophila melanogaster, Assay Type: Sex-linked recessive lethal gene mutation, Assay Code: SRLT, Evaluation Type: Evaluation A (Pre-1980)) is reported as “no conclusion”.
In the case of CNC(=O)Oc1cc(C)cc(C)c1, the mutagenic call (Species/Cell Type: Bacillus subtilis (H17 vs M45T), Assay Type: Rec-assay, spot test, DNA effects (bacterial DNA repair), Assay Code: REX-, Evaluation Type: Evaluation A (Pre-1980)) is reported as “inactive; negative” and the mutagenic call (Species/Cell Type: Escherichia coli WP2, Assay Type: Tryptophan reverse gene mutation, Assay Code: WP2-, Evaluation Type: Evaluation A (Pre-1980)) is reported as “inactive; negative”.
